According to US11072584B2, “Carbon monoxide releasing norbornenone compounds” (OTAGO INNOVATION LIMITED, priority 2015, dated 2021):
“Also recorded” adds a separate entry of the source. Structures can show the parent of a compound that is named as a salt. Where two headings read alike, the source gives them in different places.

Key:
[1] = test system: MDCK cells; assay: crystal violet cell adhesion (CVCA) cell toxicity assay; settings: Canis lupus familiaris, MDCK
[2] = test system: MDCK cells; assay: imaging of intracellular CO in living cells with fluorescent probe COP-1; format: cell-based, Canine; settings: 10-50 μM, 37° C. and 8° C., bis-trifluoroacetate Salt
Protocol: A palladium CO-responsive small-molecule fluorescent probe (COP-1) was synthesised and carbonylation of the probe by CO confirmed as previously described.^41 A final concentration of 2 nM of COP-1 was added to each well of a 96-well plate containing 200 μL of Mg^2+ and Ca^2+ free phosphate solution (DPS, 37° C.). CORM-2, oCOm-19 and oCOm-21 (1-100 μM) were added to wells in triplicate, and zeroed against an equivalent volume of vehicle control added to COP-1. Emission spectra (λ 400-600 nm) were recorded at regular time intervals for one hour using a Spectromax Gemini fluorescent plate reader (Molecular Devices, Crawley, UK) at 37° C., (λex 475 nm, and the λem500 nm measured).
The ability of the CO donors to increase intracellular levels of CO was tested in Madin Darby Canine Kidney (MDCK) cells. […] Cells were incubated for 1 hour at either 8 or 37° C. then 1 μM COP-1 in DPS added per well and cells incubated for a further 15 minutes. Cells were imaged on a fluorescent inverted microscope (Nikon Eclipse Ti-E).

[3] = test system: MDCK cells
[4] = CO release by HPLC analysis of breakdown of CO donor to its CO depleted form; format: physicochemical
Protocol: HPLC grade acetonitrile (CH3CN) was purchased from Merck Chemicals. MilliQ grade H2O was obtained from a Millipore purification system. HPLC grade trifluoroacetic acid (TFA) was purchased from Scharlau. HPLC analyses were conducted on an analytical RP-HPLC (Shimadzu LC-20AD equipped with an SPD-20A UV detector [210 and 254 nm]) using a Phenomenex Prodigy column (C-18, 5 μm, 3.00×250 mm) at 0.5 mL/min and heated to 40° C. Unless otherwise stated, the solvent system for all LC purposes was a mixture of A (0.05% TFA in H2O) and B (CH3CN). The method used was 10% to 100% B over 12.5 min, then 100% B for 2.5 min, unless otherwise stated.
In addition, the rate of CO release was measured in different physiological solutions at pH 7.4, 37° C.: phosphate buffered saline (PBS), Tris-sucrose buffer and UW solution using an amperiometric CO selective electrode (ISO-COP-2, World Precision Instruments (WPI), Inc, Sarasota, USA). The amount of CO released was recorded as the magnitude of electrode current generated on CO diffusion through a selective gas permeable membrane and oxidised to CO2 on the electrode. Current changes were recorded using a WPI TRB4100 4-channel free radical analyser with the poise potential set to 950 mV. […] The effect of pH upon the release of CO was assessed by adjusting the pH of Tris sucrose buffer to pH 6.6 using HCl and to pH 8.5 using NaOH. […]

[5] = test system: cardiac tissue; assay: static storage of cardiac tissue sections, TTC tissue viability stain; design: species or system Sprague Dawley (SD) rats; settings: 3 μM in DMEM; 24 and 48 hours cool static storage
Protocol: The following protocol was used to assess the ex vivo protective effects of the oCOm compounds in solid, non-perfused biological tissues. Male Sprague Dawley (SD) rats (280-310 g) were decapitated and the hearts rapidly excised. Hearts were cut into 1 mm thick sections and placed in 3 ml of DMEM in sterile 24 well tissue culture plates. Two tissues sections from each heart were immediately stained without storing, with 1% 2,3,5-Triphenyltetrazolium chloride (TTC) in glucose supplemented DMEM for 15 minutes at 37° C. with continuous shaking. Theses tissues represent the baseline tissue viability prior to storage. This staining technique requires active dehydrogenase enzymes to be present in order to convert TCC to a brick red formazan pigment. […] Tissues were then stained with TTC and fixed as above. One control tissue section was left unstained for comparison. All samples were sectioned transversely, photographed and staining intensity assessed qualitatively.

[6] = oral bioavailability: blood carboxyhaemoglobin after oral gavage; format: in vivo, Sprague Dawley rats
Protocol: Male Sprague Dawley rats (300-320 g) were orally dosed with either oCOm-19 (133.33 μmol/kg) or oCOm-21 (33.33 μmol/kg) in ultra-pure water by oral gavage. Animals were observed every 15 minutes for any changes in behaviour or signs of distress. Tail vein blood samples were collected in heparinised capillary tubes immediately prior to and at 1-3 hours post CO-donor administration. Blood gas analysis on each sample was performed using a Radiometer ABL800 Flex analyser.

[7] = Solubility in water; format: physicochemical
[8] = test system: isolated rat aortic rings; assay: isolated rat aortic ring vasorelaxation; design: species or system Lewis rats; settings: rings pre-contracted with phenylephrine; 37° C.; hydrochloride
Protocol: Transverse ring sections of aorta were isolated from male Lewis rats ([…], n=5-6 per group) under halothane anaesthesia and suspended under 2 g tension in an organ bath containing 10 mL of oxygenated (95% O2/5% CO2) Krebs Henseleit (KH) buffer containing 118 mM NaCl, 4.7 mM KCl, 1.2 mM KH2PO4, 1.2 mM MgSO4.7H2O, 22 mM NaHCO3, 11 mM glucose, 0.03 mM K^+ EDTA, and 2.5 mM CaCl2 as previously described.^43 Indomethacin (10 μM) was present in the buffer to exclude endogenous prostaglandins as potential modulators of vascular tone. Relaxation responses to oCOm-19 or oCOm-21 ([…]) were assessed using individual dosing in tissues pre-contracted with phenylephrine (0.1 μM). All results were subsequently expressed as a percentage of the maximal phenylephrine-induced contraction. Following repeat wash steps with Krebs Henseleit buffer, smooth muscle function and viability was confirmed by repeating the contractile response to phenylephrine. Aortic responses to individual EC50 concentrations of either CO donor in phenylephrine vasoconstricted rings were repeated separately, in the presence of the CO-chelator, myoglobin (5 μM) and the selective, irreversible inhibitor of sGC 1H-(1,2,4)oxadiazolo[4,3-a]quinoxalin-1-one, (ODQ, 10 μM), as previously described.^44

[9] = test system: horse heart myoglobin; assay: carboxymyoglobin spectrophotometric assay (CO binding to myoglobin); format: biochemical; settings: 25 to 400 μM; 5 to 90 minutes
Protocol: CO released from oCOm-19 and oCOm-21 was measured using an established carboxymyoglobin spectrophotometric assay,^39 adapted to a 96 well plate format to enable the simultaneous correction at all absorbance wavelengths arising from any potential interference from the donor compounds.^40 Freshly prepared horse heart myoglobin (66 μM) in a PBS solution (pH 7.4) was reduced with 10% w/v sodium dithionite and added to a 96 well plate. […] Absorption spectra (λ 500-600 nm) were run at ten minute intervals using a Spectramax 96-well spectrophotometer (Molecular Devices, Crawley, UK) at 37° C. CO gas saturated PBS (714 μM), was employed as a positive control.

[10] = read-out: EC50 (μM), Active Compound

| solubility (in words) ([7]; water or physiological buffers) | Solubility in water at 21° C. ([7]; water, 21° C.) | SMILES | EC50 [1, 10] | EC50 ([1]; read-out: EC50 (μM), Active Compound at 8° C.) | intracellular CO, COP-1 / BODIPY fluorescence (in words) [2] | cellular toxicity (in words) [3] | time by which 50% of the donor CO maximum release capacity was depleted [4] | tissue viability by TTC (formazan) staining (in words) [5] | effect on circulating carboxyhaemoglobin (in words) ([6]; oCOm-19 and DB-13 133.3 μmol/kg, oCOm-21 33.3 μmol/kg, hydrochloride) | behaviour / signs of distress after oral dosing ([6]; observed every 15 minutes) | vasorelaxant response (in words) [8] | carbonmonoxymyoglobin formation (in words) [9] |
| --- | --- | --- | --- | --- | --- | --- | --- | --- | --- | --- | --- | --- |
| – | – | CC12C(=O)C(C)(C(c3ccccc3)=C1c1ccccc1)C1(Br)C(=O)N(CCNCCN)C(=O)C21 (centres unmarked) [oCOm-23, 2-(2-(2-Aminoethyl)aminoethyl)-3a-bromo-3a,4,7,7a-tetrahydro-4,7-dimethyl-5,6-diphenyl-4,7-methano-1H-isoindole-1,3,8(2H)-trione bis-trifluoroacetate Salt] | 10.1 µM | > 200 µM | Increased BODIPY fluorescence intensity; also recorded: increased intracellular CO levels | increased toxicity | 75 min | – | – | – | – | – |
| – | – | CC12C(=O)C(C)(C(c3ccccc3)=C1c1ccccc1)C1C(=O)N(CCN)C(=O)C12.O=C(O)C(F)(F)F (centres unmarked) [DB-21, 2-(4,7-Dimethyl-1,3,8-trioxo-5,6-diphenyl-3a,4,7,7a-tetrahydro-1H-4,7-methanoisoindol-2(2H)-yl)ethanaminium 2,2,2-trifluoroacetate] | – | – | – | – | – | little staining was visible | – | – | – | – |
| water soluble | 3.2 mg/mL | CC12C(=O)C(C)(C(c3ccccc3)=C1c1ccccc1)C1(Br)C(=O)N(CCC(=O)NCCN)C(=O)C21.Cl (centres unmarked) [oCOm-19, N-(2-Aminoethyl)-3-(3a-bromo-4,7-dimethyl-1,3,8-trioxo-5,6-diphenyl-3a,4,7,7a-tetrahydro-1H-4,7-methanoisoindol-2(2H)-yl)propanamide hydrochloride] | 86 µM | – | – | – | 40 min | – | increase in circulating carboxyhaemoglobin | body pressing behaviour indicative of abdominal discomfort | reversible, concentration-dependent vasorelaxant responses; also recorded: reversible, concentration-dependent vasorelaxation; also recorded: vasorelaxant effects | time- and concentration-dependent increase in carbonmonoxymyoglobin formation |
